# Assay results from paper PMC8597634, “4-Iminooxazolidin-2-One as a Bioisostere of Cyanohydrin Suppresses EV71 Proliferation by Targeting 3C^pro” (Microbiology Spectrum, 2021).
# Read-outs that look alike come from different tables or passages of the source.
# Columns and labels:
# [1] = cited from earlier work
# EV71 [2] = conditions: cited from earlier work
# HRV = tested on: HRV; set-up: method as in PMID 20066739, PMID 21536800, PMID 23295352, PMID 23633597; conditions: cited from earlier work
# CVB3 = experiment: Antiviral activity by qRT-PCR in RD cells, CVB3; type: cell-based, coxsackievirus B3; conditions: Enterovirus B
# Procedure: (§1) The viral genome replication inhibition in host cells after treatment with FOPMC and FIOMC was monitored by EV71 genotype C Fuyang virus. Briefly, RD cells were cultured at 1.5 × 10^5 per well at 37°C for 24 h and then incubated with gradient-diluted FOPMC, FIOMC, and virus. The intracellular RNAs were extracted using TRIzol (TransGen, China) after 24 hpi. The real-time quantitative PCR (qRT-PCR) assays were performed with a SYBR RT-PCR kit (Bio-Rad, USA) for the EV71 5′ […] region (UTR) and the host GAPDH. The transcript copies of EV71 5′ UTR and GAPDH were calculated using the threshold cycle (ΔΔCT) method ([35]).
# (§2) To evaluate the antiviral effect of FOPMC and FIOMC on various viral strains, we measured the EC50s of these two inhibitors on five virus strains. RD cells were treated with FOPMC/FIOMC (0.003 to 50 μM) and each viral strain for 2 h. The antiviral activity was conducted by qRT-PCR according to the method described above.
# EV71 [3] = experiment: Selection of resistant virus by continuous culture of EV71; type: cell-based; conditions: EV71 cultured for 20 rounds, sequence analyses
# EV71-luciferase virus [4] = experiment: Time-of-addition assay with EV71-luciferase virus in RD cells; type: cell-based; conditions: −6 to 10 hpi, FOPMC 5 μM, FIOMC 5 μM, GPP3 1 μM
# pEV71-replicon RNA = pEV71-replicon RNA assay in RD cells; type: cell-based, EV71; conditions: RD cells transfected with pEV71-replicon RNA, 5 μM
# Procedure: RD cells (3 × 10^4 per well) were treated with FOPMC (5 μM), FIOMC (5 μM), GPP3 (1 μM), NK-1.8k (2 μM), and EV71-luciferase virus, respectively. Another plate of RD cells was treated with the same concentrations of the four inhibitors and transfected with pEV71-replicon RNA. After 24 hpi, the luciferase activity was determined using Bright-Glo luciferase substrate (Promega, USA).
# EV71-luciferase virus [5] = experiment: EC50 with EV71-luciferase virus on HEK-293T cells; type: cell-based; conditions: Enterovirus A, EV71, HEK-293T, 24 h
# Procedure: (§3) One hundred microliters each of RD (3 × 10^5 cells/ml), VeroE6 (3 × 10^5 cells/ml), and HEK-293T cells (2 × 10^5 cells/ml) was cultured overnight. Each 96-well plate of cells was treated with EV71-luciferase virus and diluted FOPMC/FIOMC (diluted from 3 nM to 20 μM) for 24 h. The luciferase signals were tested using the firefly luciferase kit (Promega, USA). All of the EC50s were profiled by Graph Pad Prism 7.0.
# CVA16 = experiment: Antiviral activity by qRT-PCR in RD cells, CVA16; type: cell-based, coxsackievirus A16; conditions: Enterovirus A
# Procedure: as §1, §2
# EV71 3C^pro [6] = biological target: T1, EV71 3C^pro (Human enterovirus 71, UniProt Q66478); experiment: Inhibitor constant (Ki) enzymatic FRET assay; type: biochemical; conditions: 0.5 μM EV71 3C^pro, 100 μM peptide, 2 h
# T1 construct: The EV71 3C^pro plasmid was amplified and linked into a pET-28a vector; 6xHis; made in house; host or cells: Escherichia coli
# Procedure: The inhibitor constants (Kis) were determined by fluorescence resonance energy transfer (FRET) using NMA-IEALFQGPPK(DNP)FR peptide. The assays were performed with 50 mM Tris-HCl–150 mM NaCl (pH 7.0) with 0.5 μM EV71 3C^pro and gradient-diluted FOPMC/FIOMC. Subsequently, 100 μM each peptide was hydrolyzed for 2 h. The fluorescence signals were monitored at a microplate reader (Perkin Elmer, USA).
# EV71 VP1 = experiment: Expression of EV71 VP1 in RD cells; type: cell-based; conditions: GAPDH invariable
# EV71-C = experiment: Antiviral activity by qRT-PCR in RD cells, EV71-C; type: cell-based; conditions: Enterovirus A
# Procedure: as §1, §2
# HEK-293T cells = experiment: Cytotoxicity (CellTiter-Glo) on HEK-293T cells; type: cell-based; conditions: even at 200 μM, 48 h
# Procedure: (§4) Determination of the cytotoxicity of FOPMC and FIOMC was performed on three cell lines using a CellTiter-Glo kit (Promega, USA). Briefly, RD, VeroE6, and HEK-293T cells were treated with gradient dilutions of […] (from 0.78 to 200 μM) for 48 h. CellTiter-Glo reagents were applied to evaluate the cells' viability by a microplate reader.
# EV71 3C^pro [7] = biological target: T1, EV71 3C^pro; experiment: Hydrolytic activity inhibition of EV71 3C^pro on precursor 3BC (SDS-PAGE); type: biochemical; conditions: 100 μM 3C^pro, molar ratio 1:5, GST-3BC-C147A 50 μM
# Procedure: To ascertain whether FOPMC and FIOMC inactivated EV71 3C^pro to hydrolyze the precursor 3BC, the fusion protein GST-3BC with a catalytic central residue C147A mutation was expressed. A 100 μM concentration of EV71 3C^pro and FOPMC/FIOMC (at a molar ratio of 1:5) was incubated at 30°C for 2 h. GST-3BC (50 μM) protein was added for another 4 h, and the reagents were analyzed using SDS-PAGE.
# [8] = cited from earlier work; remark: listed apart in the source
# [9] = tested on: EV71 genotype C Fuyang virus; experiment: qRT-PCR of viral genome replication, EV71 Fuyang virus in RD cells; type: cell-based; conditions: Enterovirus A, 24 hpi
# Procedure: as §1
# EV71-GFP = experiment: Phenotype assay with EV71-GFP reporter virus in RD cells; type: cell-based; conditions: 0.16 to 20 μM, 24 h
# Procedure: RD cells (3 × 10^4 per well) were cultured in 96-well plates overnight. Diluted compounds (0.16 to 20 μM) and EV71-GFP reporter virus were added to RD cells. After 24 hpi, the GFP was monitored using confocal microscopy (Olympus, Japan).
# EV71-B = experiment: Antiviral activity by qRT-PCR in RD cells, EV71-B; type: cell-based; conditions: Enterovirus A
# Procedure: as §1, §2
# EV71-luciferase virus [10] = experiment: EC50 with EV71-luciferase virus on RD cells; type: cell-based; conditions: Enterovirus A, 24 h
# Procedure: as §3
# EV71-A = experiment: Antiviral activity by qRT-PCR in RD cells, EV71-A; type: cell-based; conditions: Enterovirus A
# Procedure: as §1, §2
# RD cells = experiment: Cytotoxicity (CellTiter-Glo) on RD cells; type: cell-based, human; conditions: even at 200 μM, 48 h
# Procedure: as §4
# five viral strains = experiment: Antiviral activity on five viral strains (summary in discussion); type: cell-based; conditions: read-out: EC50s depending on the specific virus
# Procedure: as §2
# EV71-luciferase virus [11] = experiment: EC50 with EV71-luciferase virus on VeroE6 cells; type: cell-based; conditions: Enterovirus A, EV71, Vero C1008, 24 h
# Procedure: as §3
# VeroE6 cells = experiment: Cytotoxicity (CellTiter-Glo) on VeroE6 cells; type: cell-based; conditions: even at 200 μM, 48 h
# Procedure: as §4
# EV-D68 = tested on: EV-D68; set-up: method as in PMID 25554786; conditions: cited from earlier work
structure (smiles),measurement,setting,value
"Cc1cc(C(=O)NC(Cc2ccc(F)cc2)C(=O)NC(CC2CCCNC2=O)C(O)C#N)no1 [(R)-1, reference compound]",half-life [t1/2] in human plasma,[1],11 min
CCOC(=O)/C=C/[C@H](C[C@@H]1CCNC1=O)NC(=O)[C@@H](CC(=O)[C@@H](NC(=O)c1cc(C)on1)C(C)C)Cc1ccc(F)cc1 [AG7088],EC50,EV71 [2]; EV71,1670 nM
same,EC50,HRV,13 nM
Cc1cc(C(=O)NC(Cc2ccc(F)cc2)C(=O)NC(CC2CCCNC2=O)C2OC(=O)N(C(C)C)C2=N)no1 (stereo not shown) [FIOMC],EC50,CVB3,80 ± 4 nM
same,resistance mutation after continuous culture,EV71 [3],no mutation of EV71 virus
same,inhibitory effect by time of addition,EV71-luciferase virus [4],valid inhibitory effects regardless of the time
same,effect on replicon,pEV71-replicon RNA,impacted the virus replication stage
same,EC50,EV71-luciferase virus [5],93 ± 7 nM
same,EC50,CVA16,125 ± 2 nM
same,Ki,EV71 3C^pro [6],33 ± 8 nM
same,expression of EV71 VP1,EV71 VP1,inhibited
same,EC50,EV71-C,75 ± 3 nM
same,Cytotoxicity,HEK-293T cells,no apparent cytotoxic effect
same,hydrolysis of 3BC by 3C^pro,EV71 3C^pro [7],distinctly restrained the hydrolysis
same,t1/2 in mouse plasma,[8],exceed 120 min
same,EC50,[9],67 ± 1 nM
same,replication of EV71-GFP in phenotype screen,EV71-GFP,positive results
same,EC50,EV71-B,102 ± 9 nM
same,EC50,EV71-luciferase virus [10],92 ± 3 nM
same,EC50,EV71-A,96 ± 1 nM
same,Cytotoxicity,RD cells,no apparent cytotoxic effect
same,EC50,five viral strains,80 to 125 nM
same,half-life [t1/2] in human plasma,[1],exceed 120 min
same,EC50,EV71-luciferase virus [11],104 ± 8 nM
same,Cytotoxicity,VeroE6 cells,no apparent cytotoxic effect
CCCN1C(=N)C(C(CC2CCCNC2=O)NC(=O)C(Cc2ccc(F)cc2)NC(=O)c2cc(C)on2)OC1=O (stereo not shown) [FOPMC],EC50,CVB3,210 ± 5 nM
same,resistance mutation after continuous culture,EV71 [3],no mutation of EV71 virus
same,inhibitory effect by time of addition,EV71-luciferase virus [4],valid inhibitory effects regardless of the time
same,effect on replicon,pEV71-replicon RNA,impacted the virus replication stage
same,EC50,EV71-luciferase virus [5],299 ± 28 nM
same,EC50,CVA16,217 ± 14 nM
same,Ki,EV71 3C^pro [6],83 ± 1 nM
same,expression of EV71 VP1,EV71 VP1,inhibited
same,EC50,EV71-C,128 ± 9 nM
same,Cytotoxicity,HEK-293T cells,no apparent cytotoxic effect
same,hydrolysis of 3BC by 3C^pro,EV71 3C^pro [7],distinctly restrained the hydrolysis
same,t1/2 in mouse plasma,[8],exceed 120 min
same,EC50,[9],123 ± 4 nM
same,replication of EV71-GFP in phenotype screen,EV71-GFP,positive results
same,EC50,EV71-B,135 ± 4 nM
same,EC50,EV71-luciferase virus [10],244 ± 12 nM
same,EC50,EV71-A,115 ± 2 nM
same,Cytotoxicity,RD cells,no apparent cytotoxic effect
same,half-life [t1/2] in human plasma,[1],exceed 120 min
same,EC50,EV71-luciferase virus [11],202 ± 15 nM
same,Cytotoxicity,VeroE6 cells,no apparent cytotoxic effect
O=c1c(O)c(-c2ccc(O)c(O)c2)oc2cc(O)ccc12 [Fisetin],EC50,EV71 [2]; anti-EV71 activity,85000 nM
"CCON=Cc1ccc(OCCC(C)CCN2CCN(c3ccncc3)C2=O)cc1 (stereo not shown) [GPP3, reference compound]",inhibitory effect by time of addition,EV71-luciferase virus [4],dramatically decreased from 4 hpi
O=c1cc(-c2ccc(O)c(O)c2)oc2cc(O[C@@H]3O[C@H](CO)[C@@H](O)[C@H](O)[C@H]3O)cc(O)c12 [Luteoloside],EC50,EV71 [2]; cytopathy caused by EV71 infection,430000 nM
Cc1cc(CCCOc2c(C)cc(-c3noc(C(F)(F)F)n3)cc2C)on1 [pleconaril],EC50,EV-D68,430 nM
O=c1c(O)c(-c2ccc(O)c(O)c2)oc2cc(O)cc(O)c12 [quercetin],EC50,EV71 [2]; EV71,12100 nM
C[C@@H]1O[C@@H](OC[C@H]2O[C@@H](Oc3c(-c4ccc(O)c(O)c4)oc4cc(O)cc(O)c4c3=O)[C@H](O)[C@@H](O)[C@@H]2O)[C@H](O)[C@H](O)[C@H]1O [rutin],EC50,EV71 [2]; anti-EV71 activity,110000 nM
